Reference: patent publication US20130089562A1, “METHODS OF TREATING LIVER CONDITIONS USING NOTCH2 ANTAGONISTS” (priority 2011, published 2013)

How the values were obtained:
[1] = tested on: primary oval cells (liver progenitor cells); experiment: Colony formation and proliferation of primary oval cell cultures on Sw-3T3 feeder fibroblasts; assay type: cell-based, mouse
Experimental: To identify the signals that regulate hepatocyte differentiation from liver progenitor cells, transcriptional profiling was performed on adult liver progenitors (oval cells) from mice fed a choline deficient, ethionine supplemented (CDE) diet (FIG. 1A; FIG. 5A). This CDE model is known in the art as a model of chronic liver disease. CDE is also a steatohepatitis model (NASH). Chronic CDE can also lead to hepatocellular carcinoma (HCC), thereby also serving as a model for HCC. To induce an oval cell response, 8-12 week-old female C57BL/6N mice (Charles River) were fed a choline deficient diet (20% Lard; Teklad TD.04523) supplemented with 0.15% (w/v) Ethionine in the drinking water (Akhurst et al., Hepatology 34(3):519 (2001)). Liver non-parenchymal cells were isolated according to the protocol of del Castillo (del Castillo et al., Am. J. Pathol., 172(5):1238 (2008)) with the addition of 0.04% Hyaluronidase (Sigma) to the in vitro dissociation step.
To elucidate the role of Notch signaling in liver regeneration, an in vitro culture system was developed. Cell cultures were established by culturing primary oval cells on Sw-3T3 fibroblasts (ATCC), arrested with Mitomycin C (Sigma), in High Glucose Dulbecco's Modified Eagle Medium (DMEM; Invitrogen) supplemented with 15% Fetal Calf Serum (Sigma), non-essential amino acids (Invitrogen), Glutamax (Invitrogen), and ITS (Invitrogen).

[2] = tested on: Notch2 intracellular domain (ICD); experiment: Notch2 signaling in cultured oval cells (Western blot for γ-secretase cleaved Notch2 ICD; Hes1 expression); assay type: cell-based, mouse; settings: FIG. 2H
Description: The anti-activated Notch2 antibody (clone 40-2-7) was generated against the peptide VIMAKRKRKHGSLW, corresponding to amino acids 1697-1710 of the human Notch2 protein sequence (SEQ ID NO:73), coupled to KLH (YenZym Custom Antibodies, LLC). Splenocytes from a rabbit producing an antibody with the appropriate specificity were used to generate hybridomas (Epitomics, Inc.). Clone 40-2-7 was identified by screening the resulting rabbit monoclonal antibodies by immunoblotting and immunohistochemistry. This antibody recognizes both human (FIG. 7B, left panel) and mouse (FIG. 7B, right panel) active Notch2 at endogenous levels.
Progenitors cultured in the culture system maintained growth (FIG. 2A) and formed colonies consisting of small, tightly packed cells with a high nuclear-cytoplasmic ratio and a distinct raised edge (FIG. 2A, left panel). The cells within these colonies were uniformly EpCAM positive (FIG. 2A, right panel). […] Activated Notch2 was detected by Western blot analysis using a rabbit monoclonal antibody raised against the S3 cleaved form of the human Notch2 protein (FIG. 7B). […]
Notch2 signaling was active in cultured oval cells, as transcriptionally active Notch2 intracellular domain (ICD) could be detected using an antibody specific to the γ-secretase cleaved form of this receptor (FIG. 2H). […]

C[C@H](NC(=O)Cc1cc(F)cc(F)c1)C(=O)N[C@H](C(=O)OC(C)(C)C)c1ccccc1 [DAPT, N—[N-(3,5-difluorophenacetyl)-1-alanyl]-S-phenylglycine t-butyl ester]
progenitor cell proliferation ([1]; FIG. 2D): small increase | enhancement of colony formation ([1]; primary cultures treated with DAPT, FIG. 2B): approximately ten-fold | appearance of γ-secretase cleaved (active) form of Notch2 [2]: absent
